Measured values: patent US20120214847A1, “2-[1-PHENYL-5-HYDROXY-4a-SUBSTITUTED-HEXAHYDROCYCLOPENTA[F]INDAZOL-5-YL]ETHYL PHENYL DERIVATIVES AS GLUCOCORTICOID RECEPTOR LIGANDS” (Merck Sharp & Dohme Corp., priority 2009, published 2012)

Biological target: T1, human GR (Homo sapiens, UniProt P04150)
T1 construct: naturally expresses the human GR; endogenous in cells
T1 sequence (P04150 1-777): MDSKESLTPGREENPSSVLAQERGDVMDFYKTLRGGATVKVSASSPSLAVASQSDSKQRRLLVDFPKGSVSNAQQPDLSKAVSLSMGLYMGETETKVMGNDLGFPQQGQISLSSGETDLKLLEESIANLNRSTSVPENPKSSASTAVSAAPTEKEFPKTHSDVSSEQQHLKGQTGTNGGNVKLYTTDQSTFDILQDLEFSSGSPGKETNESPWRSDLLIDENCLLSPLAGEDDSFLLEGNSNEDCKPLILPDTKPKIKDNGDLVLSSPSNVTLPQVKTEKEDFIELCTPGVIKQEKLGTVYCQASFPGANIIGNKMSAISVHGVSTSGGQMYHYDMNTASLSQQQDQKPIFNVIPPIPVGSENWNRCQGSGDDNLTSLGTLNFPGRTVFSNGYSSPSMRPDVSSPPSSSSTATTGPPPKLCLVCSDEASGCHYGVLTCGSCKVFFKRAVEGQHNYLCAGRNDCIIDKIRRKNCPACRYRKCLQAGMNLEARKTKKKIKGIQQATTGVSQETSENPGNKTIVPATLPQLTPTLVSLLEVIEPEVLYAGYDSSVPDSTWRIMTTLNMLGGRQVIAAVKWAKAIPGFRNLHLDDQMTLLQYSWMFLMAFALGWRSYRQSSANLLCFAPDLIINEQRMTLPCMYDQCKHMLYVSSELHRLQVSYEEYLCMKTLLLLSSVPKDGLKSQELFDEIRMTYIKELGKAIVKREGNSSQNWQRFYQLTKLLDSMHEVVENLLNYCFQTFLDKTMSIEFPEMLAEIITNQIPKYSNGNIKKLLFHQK
Test: Trans-activation modulation of glucocorticoid receptor (GRAMMER), MMTV-LUC reporter in A549 cells
Type: cell-based
Conditions: for Emax: A549, A549 cells, Emax relative to the activity obtained with 300 nM dexamethasone, read-out: Transactivation A549 Cells Grammer Emax (%); for EC50: A549 cells, IP = inflection point, read-out: Transactivation A549 Cells Grammer IP
Description: Trans-Activation Modulation of Glucocorticoid Receptor (GRAMMER)
This assay assesses the ability of test compounds to control transcription from the MMTV-LUC reporter gene in lung adenocarcinoma A549 cells or HeLa cells, a human […] cell line that naturally expresses the human GR. The assay measures induction of a modified MMTV LTR/promoter linked to the LUC reporter gene.
The routine transient assay consists of plating 7,000-25,000 cells/well of a white, clear-bottom 96-well plate. Alternatively, 384-well plates can be used at a cell concentration of 10,000/well. The media that the cells are plated in is “exponential growth medium” which consists of phenol red-free RPMI1640 containing 10% FBS, 4 mM L-glutamine, 20 mM HEPES, 10 ug/mL human insulin, and 20 ug/mL gentamicin. Incubator conditions are 37° C. and 5% C02. The transfection is done in batch mode. The cells are trypsinized and counted to the right cell number in the proper amount of fresh media. It is then gently mixed with the FuGene6/DNA 25 mix and plated onto the 96 or 384-well plate, all the wells receive 100 uL or 40 uL, respectively, of medium+lipid/DNA complex then incubated 37° C. overnight. The transfection cocktail consists of serum-free OptiMEM, FuGene6 reagent and DNA. The manufacturer's (Roche Biochemical) protocol for cocktail setup is as follows: The lipid to DNA ratio is approximately 2.5:1 and the incubation time is 20 min at room temperature. Sixteen to 24 h after transfection, the cells are treated with dexamethasone to a final concentration of 10 nM as well as the compound of interest, such that final DMSO (vehicle) concentration is equal to or less than 1%. Each plate also contains samples that are treated with 10 nM dexamethasone alone, which is used as the 100% activity control. The cells are exposed to the compounds for 24 h. After 24 h, the cells are lysed by a Promega cell culture lysis buffer for approximately 30 min and then the luciferase activity in the extracts is assayed in the 96-well format luminometer. In 384 well format, Steady-Glo (Promega) or Steady-Lite (PerkinElmer) can be used by adding an equal volume of reagent to the media present in each well. Activity induced by 10 nM dexamethasone alone is set at 100% activity. Antagonist activity is calculated by determining the decrease in dexamethasone-induced activity in response to compound treatment relative to samples that were treated with dexamethasone alone. Results are expressed as % inhibition of 10 nM dexamethasone activity or as fold of 10 nM dexamethasone activity. This transactivation assay can be performed in an agonist and antagonist mode to identify these different activities.
Activity of test compounds is calculated as the Emax relative to the activity obtained with 300 nM dexamethasone. […] The exemplified tissue selective glucocorticoid receptor modulators of the present invention display agonist activity in this assay of greater than 5% and less than 100%, and maximal transactivation activity less then maximal transrepression activity. The action of compounds is also tested in an antagonist mode (Anti-GRAMMER) in which the cells are treated with medium containing an agonist such as 10 nM DEX and the ability of agents to inhibit the activation by an agonist is measured.

Emax	EC50	SMILES
11%	65 nM	O[C@@]1(CCc2cc(C(F)(F)F)ccn2)CCC2=Cc3c(cnn3-c3ccc(F)cc3)C[C@@]21C1CC1 [Example 32, (4aR,5R)-4a-Cyclopropyl-1-(4-fluorophenyl)-5-{2-[4-(trifluoromethyl)pyridin-2-yl]ethyl}-1,4,4a,5,6,7-hexahydrocyclopenta[f]indazol-5-ol]
27%	72 nM	CC[C@]12Cc3cnn(-c4ccc(F)cc4)c3C=C1CC[C@@]2(O)CCc1cc(C)ccn1 [Example 33, (4aS,5R)-4a-Ethyl-1-(4-fluorophenyl)-5-[2-(4-methylpyridin-2-yl)ethyl]-1,4,4a,5,6,7-hexahydrocyclopenta[f]indazol-5-ol]
11%	59 nM	Cc1ccnc(CC[C@]2(O)CCC3=Cc4c(cnn4-c4ccc(F)cc4)C[C@@]32C2CC2)c1 [Example 36, (4aR,5R)-4a-Cyclopropyl-1-(4-fluorophenyl)-5-[2-(4-methylpyridin-2-yl)ethyl]-1,4,4a,5,6,7-hexahydrocyclopenta[f]indazol-5-ol]
14%	116 nM	NC(=O)c1cc(F)ccc1CC[C@]1(O)CCC2=Cc3c(cnn3-c3ccc(F)cc3)C[C@@]21C1CC1 [Example 39, 2-{2-[(4aR,5R)-4a-Cyclopropyl-1-(4-fluorophenyl)-5-hydroxy-1,4,4a,5,6,7-hexahydrocyclopenta[f]indazol-5-yl]ethyl}-5-fluorobenzamide]

The remaining lines, values behind:

SMILES	Emax	EC50
N#Cc1ccccc1CC[C@]1(O)CCC2=Cc3c(cnn3-c3cccnc3)C[C@@]21C1CC1 [Example 30, 2-{2-[(4aR,5R)-4a-Cyclopropyl-5-hydroxy-1-(pyridin-3-yl)-1,4,4a,5,6,7-hexahydrocyclopenta[f]indazol-5-yl]ethyl}benzonitrile]	4%	126 nM
N#Cc1cccnc1CC[C@]1(O)CCC2=Cc3c(cnn3-c3ccc(F)cc3)C[C@@]21C1CC1 [Example 31, 2-{2-[(4aR,5R)-4a-Cyclopropyl-1-(4-fluorophenyl)-5-hydroxy-1,4,4a,5,6,7-hexahydrocyclopenta[f]indazol-5-yl]ethyl}pyridine-3-carbonitrile]	24%	9 nM
CC[C@]12Cc3cnn(-c4ccc(F)cc4)c3C=C1CC[C@@]2(O)CCc1cc(C(F)(F)F)ccn1 [Example 34, (4aS,5R)-4a-Ethyl-1-(4-fluorophenyl)-5-{2-[4-(trifluoromethyl)pyridin-2-yl]ethyl}-1,4,4a,5,6,7-hexahydrocyclopenta[f]indazol-5-ol]	24%	91 nM
N#Cc1ccnc(CC[C@]2(O)CCC3=Cc4c(cnn4-c4ccc(F)cc4)C[C@@]32C2CC2)c1 [Example 35, 2-{2-[(4aR,5R)-4a-Cyclopropyl-1-(4-fluorophenyl)-5-hydroxy-1,4,4a,5,6,7-hexahydrocyclopenta[f]indazol-5-yl]ethyl}pyridine-4-carbonitrile]	17%	25 nM
CC[C@]12Cc3cnn(-c4ccc(F)cc4)c3C=C1CC[C@@]2(O)CCc1cccc(OC)c1C(N)=O [Example 37, 2-{2-[(4aS,5R)-4a-Ethyl-1-(4-fluorophenyl)-5-hydroxy-1,4,4a,5,6,7-hexahydrocyclopenta[f]indazol-5-yl]ethyl}-6-methoxybenzamide]	49%	10 nM
COc1cccc(CC[C@]2(O)CCC3=Cc4c(cnn4-c4ccc(F)cc4)C[C@@]32C2CC2)c1C(N)=O [Example 38, 2-{2-[(4aR,5R)-4a-Cyclopropyl-1-(4-fluorophenyl)-5-hydroxy-1,4,4a,5,6,7-hexahydrocyclopenta[f]indazol-5-yl]ethyl}-6-methoxybenzamide]	11%	10 nM
CC[C@]12Cc3cnn(-c4ccc(F)cc4)c3C=C1CC[C@@]2(O)CCc1ccccc1S(=O)(=O)C(C)C [Example 40, (4aS,5R)-4a-Ethyl-1-(4-fluorophenyl)-5-{2-[2-(propan-2-ylsulfonyl)phenyl]ethyl}-1,4,4a,5,6,7-hexahydrocyclopenta[f]indazol-5-ol]	36%	101 nM
